Source: patent publication US5521293A (Lever Brothers Company, Division of Conopco, Inc., priority 1995, dated 1996)
Like-named read-outs stand apart in the source and are kept apart here.

Columns and labels:
[1] = Effectiveness in reducing surface tension (surface pressure at the CMC); assay type: physicochemical; settings: 60° C., estimated by linear extrapolation
From the text: Effectiveness of a surfactant in reducing surface tension is defined as the maximum reduction in surface tension that can be obtained regardless of the bulk phase surfactant concentration.
As mentioned before, surface tension reduction depends on the replacement of water molecules at the interface by surfactant molecules, therefore the effectiveness of a surfactant in reducing interfacial surface tension should reflect the saturated concentration of surfactant at the interface relative to that in bulk liquid phase. During this process the surface tension of water steadily decreases as bulk phase surfactant concentration increases. This will continue until the concentration reaches the critical micelle concentration (CMC), above which the surface tension remains nearly unchanged and the interface is saturated with surfactant. The surface tension at the CMC is therefore very close to the minimum interfacial tension or maximum surface pressure that the system can achieve. The surface pressure at this point, cmc, is a suitable measure of the effectiveness of a surfactant in reducing surface tension and is given as:
cmc =20+2.3 nRT(Γmax) log[CMC/C20 ]
n=1 which represents the number of ions whose surface concentration changes with the change in liquid phase surfactant concentration.
R=8.314×107 ergs/mol K (Gas Constant)
Γmax =-1/2·303RT(∂γ/∂log [Conc])T=3.85×10^-10 mole/cm^2
CMC/C20 =is the ratio of the critical micelle concentration to the bulk phase surfactant concentration necessary to reduce the surface tension of water by 20 dyn/cm.
The effectiveness of various surfactants in reducing surface tension ( cmc) were determined and are set forth below: […]

[2] = Area per molecule at the interface; assay type: physicochemical; settings: 60° C., estimated by linear extrapolation
From the text: The area per molecule of a surfactant at the water/air interface provides information on the degree of packing and the orientation of the adsorbed surfactant molecule. While not wishing to be bound by theory, it is believed that surfactants that have small area per molecule values tend to pack more closely at the interface than those with large area per molecule values. From the surface excess concentration at surface saturation (Γmax), the area per molecule (am) of C8 /C10 oxypropyl D-gluconamide was determined and is given by:
am =1×10^16 /Nav Γmax
Γmax =-1/2·303RT(∂γ/∂log[Conc])T
NAV =6.0221×10^23 per gram mole (Avogadro's Number)
The area per molecule (am) of several surfactants were-determined and are set forth below: […]

[3] = cited from earlier work
[4] = cited from earlier work; remark: listed apart in the source
[5] = cited from earlier work; remark: listed apart in the source
[6] = Effectiveness of adsorption at the interface (surface excess concentration at surface saturation); assay type: physicochemical; settings: 60° C., estimated by linear extrapolation
From the text: The surface excess concentration at surface saturation (Γmax) is defined as a measure of the effectiveness of surfactant adsorption at the water/air interface and represents the maximum value to which adsorption can be obtained. Effectiveness of adsorption is related to the interfacial area occupied by the surfactant molecule. The smaller the effective cross-sectional area of a surfactant at the interface, the greater its effectiveness of adsorption. The effectiveness of adsorption is an important factor in determining surfactant properties such as detergency, foaming, wetting or emulsification. While not wishing to be bound by theory, it is believed that surfactants that absorb effectively at the interface tend have tightly packed coherent interfacial films and often provide better surfactant benefits than those with loosely packed noncoherent films. The effectiveness of adsorption of C8 /C10 oxypropyl D-gluconarnide was determined using the Gibbs equation given as:
Γmax =-1/2.303RT(∂γ/∂log[Conc])T
(∂γ/∂log[Conc)T =-24.574971 ergs/cm^2 (which is equivalent to the
slope of a plot of γ versus log[Conc]) R=8.3 14×10^7 ergs/mol K (Gas Constant)
The surface excess concentration at surface saturation (Γmax) of various surfactants were determined and are set forth below: […]

[7] = Krafft point of aqueous dispersion of aldonamide; assay type: physicochemical; settings: for Krafft Point (0.1%): 0.1% in water by weight; for Krafft Point (1.0%): 1.0% in water by weight
Description: The temperature at and above which surfactants begin to form micelles instead of precipitates is referred to as the Krafft point (Tk) and at this temperature the solubility of a surfactant becomes equal to its CMC (numerical value at which micelles are formed).
The Krafft point was measured by preparing 650 ml of a 0.1% or 1.0% dispersion of aldonamide in water by weight. If the surfactant was soluble at room temperature, the solution was slowly cooled to 0° C. […] (less than zero). If it precipitated out of solution, the temperature at which precipitation occurs was taken as the Krafft point.
If the surfactant was insoluble at :room temperature, the dispersion was slowly heated until the solution became homogeneous. It was then slowly cooled until precipitation occurred. The temperature at which the surfactant precipitates out of solution upon cooling was taken as the Krafft point.

[8] = Critical micelle concentration (Wilhelmy plate method); assay type: physicochemical; settings: 60° C.
Description: The critical micelle concentration (CMC) is defined as the concentration at which a surfactant forms micelles in aqueous solution. Micellization is the preferred interfacial phenomena, since certain surfactant benefits such as detergency (the solubilization of soils), foaming, wetting or emulsification depend on the formation of these aggregates in solution.
The CMC value of C8 /C10 oxypropyl D-gluconamide was determined by plotting surface tension as a function of log(concentration) and extrapolating linear points to obtain an intersection point. The concentration at this point was taken as the CMC. The technique used was the Wilhelmy plate method and the instrument used was a Lauda Auto-Tensiometer. While wishing not to be bound to theory, it is believed that surfactants with low CMC values form micelles more readily at lower concentrations than those with high CMC values.
The critical micelle concentration (CMC) value of C8 /C10 oxypropyl D-gluconamide (molecular weight=375.02 g/mole, 65.9% C8, 34.1% C10) was determined and is set forth below: […]

Ross-Miles foam height [9] = assay type: physicochemical; design: key: X: low water solubility. foam height cannot be measured; settings: Examples 82-83
Description: (§1) Since most of the foaming data on surfactants is typically obtained by the Ross-Miles Foam Height Assay (Ross, J. and Miles, G. D. Am Soc. for Testing Material Method D1173-63 Philadelphia, Pa. (1953); Oil & Soap (1958) 62:1260) the foaming ability of these surfactants were acquired using this method.
(§2) In the Ross-Miles method, 200 mL of a surfactant solution contained in a pipette of specified dimensions with a 2.9-mm-i.d. orifice is allowed to fall 90 cm onto 50 mL of the same solution contained in a cylindrical vessel maintained at a given temperature by means of a water jacket. The height of the foam produced in the cylindrical vessel is read immediately after all the solution has run out of the pipette and then again after a given amount of time.
(§3) Using this method, the foam production (initial foam height in mm) and foam stability (final foam height after 10 minutes in mm) were measured at 0.1% aldonamide concentration, 40° C. and 0 ppm (parts per million) hardness. Aldonamides that were not soluble at 40° C. were measured at about 5°-10° C. above their Krafft points.

Water solubility = assay type: physicochemical; settings: in words
Ross-Miles foam height [10] = assay type: physicochemical; design: key: X: low water solubility, foam height cannot be measured; settings: Example 84; for Foam Height Final (symbol): after 10 minutes
Description: as §1, §2, §3

[11] = listed as Dodecyl D-Gluconamide
[12] = listed as dodecyl D-gluconamide

Row | SMILES | surface pressure at the CMC (cmc) [1] [dyn/cm] | area per molecule (am) [2] [Å^2] | area per molecule (am) ([3]; 25° C.) [Å^2] | area per molecule (am) ([3]; 40° C.) [Å^2] | surface pressure at the CMC (cmc) ([4]; 25° C.) [dyn/cm] | surface pressure at the CMC (cmc) ([4]; 40° C.) [dyn/cm] | surface excess concentration at surface saturation (Γmax) ([5]; 25° C.) | surface excess concentration at surface saturation (Γmax) ([5]; 40° C.) | surface excess concentration at surface saturation (Γmax) [6] | other results
1 | CCCCCCCCCCCCOCCOCCOCCOCCOCCOCCOCCO [Dodecylhepta(oxyethylene) Ether] | 36.8 | 61.0 | 57.3 | 59.9 | 38.3 | 38.5 | 2.90 × 10^-10 mole/cm^2 | 2.77 × 10^-10 mole/cm^2 | 2.71 × 10^-10 mole/cm^2 | –
2 | CCCCCCCCCCCCOCCOCCOCCOCCOCCOCCOCCOCCO [Dodecylocta(oxyethylene) Ether] | 36.3 | 69.0 | 66.0 | 67.4 | 37.2 | 37.3 | 2.52 × 10^-10 mole/cm^2 | 2.46 × 10^-10 mole/cm^2 | 2.40 × 10^-10 mole/cm^2 | –
3 | CCCCCCCCCCCCOCCOCCOCCOCCOCCO [Dodecylpenta(oxyethylene) Ether] | 40.7 | 52.3 | 50.1 | 50.6 | 41.5 | 41.2 | 3.31 × 10^-10 mole/cm^2 | 3.28 × 10^-10 mole/cm^2 | 3.16 × 10^-10 mole/cm^2 | –
4 | CCCCCCCCCCCCOCCOCCOCCOCCO [Dodecyltetra(oxyethylene) Ether] | 40.7 | 53.3 | 45.7 | 48.7 | 43.4 | 42.0 | 3.63 × 10^-10 mole/cm^2 | 3.41 × 10^-10 mole/cm^2 | 3.01 × 10^-10 mole/cm^2 | –
5 | CCCCCCCCCCCCOCCOCCOCCO [Dodecyltri(oxyethylene) Ether] | 41.4 | 45.4 | 41.7 | 42.5 | 44.1 | 43.1 | 3.98 × 10^-10 mole/cm^2 | 3.90 × 10^-10 mole/cm^2 | 3.83 × 10^-10 mole/cm^2 | –
6 | CCCCCCCCCCCCNC(=O)[C@H](O)[C@@H](O)[C@H](O)[C@H](O)CO [H, Dodecyl D-Gluconamide] | – | – | – | – | – | – | – | – | – | Krafft Point (0.1%) [7]: 91 °C; CMC / micelle formation (in words) [8, 11]: None; CMC / micelle formation (in words) [8, 12]: can not form micelles; Foam Height Final (symbol) (Ross-Miles foam height [9]; after 10 minutes): X; Foam Height Initial (symbol) (Ross-Miles foam height [9]; initial): X; water solubility (Water solubility; [11]): Insoluble; water solubility (Water solubility; [12]): insoluble in water
7 | CCCCCCCCCCCCNC(=O)[C@H](O)[C@H](O)[C@@H](O)[C@@H](O)CO [L, C12 L-Mannonamide] | – | – | – | – | – | – | – | – | – | Krafft Point (0.1%) [7]: > 100 °C; water solubility (Water solubility): Insoluble
8 | CCCCCCCCCCCCCCCNC(=O)[C@H](O)[C@@H](O)[C@H](O[C@@H]1O[C@H](CO)[C@H](O)[C@H](O)[C@H]1O)[C@H](O)CO [SS, C15 D-Lactobionamide] | – | – | – | – | – | – | – | – | – | Foam Height Final (symbol) (Ross-Miles foam height [10]): X; Foam Height Initial (symbol) (Ross-Miles foam height [10]): X; Krafft Point (1.0%) [7]: 84 °C
9 | CCCCCCCCCCCCCCCCCCNC(=O)[C@H](O)[C@@H](O)[C@H](O[C@@H]1O[C@H](CO)[C@H](O)[C@H](O)[C@H]1O)[C@H](O)CO [UU, C18 D-Lactobionamide] | – | – | – | – | – | – | – | – | – | Foam Height Final (symbol) (Ross-Miles foam height [10]): X; Foam Height Initial (symbol) (Ross-Miles foam height [10]): X; Krafft Point (1.0%) [7]: 82 °C
